Assay results: ChEMBL document CHEMBL4813951 (Eur J Med Chem, 2021)
Activity calls are given as the source filed them. The calls are words filed in the database; no cut-off is given here.

Tests used:
D(3) dopamine receptor [1] = target: T1, D(3) dopamine receptor (Homo sapiens, UniProt P35462); assay: Displacement of [3H]N-methylspiperone from human D3 receptor expressed in HEK293T cells co-expressing CRE-Luc incubated for 60 mins by microbeta scintillation counting method; type: cell-based
Histamine H2 receptor [2] = target: T2, Histamine H2 receptor (Homo sapiens, UniProt P25021); assay: Agonist activity at human histamine receptor expressed in sf9 insect cell membranes co-exprssing GsalphaS incubated for 90 mins [35S]GTPgammaS binding based microbeta scintillation counting analysis; type: functional, Membrane
T2 sequence (P25021 whole entry): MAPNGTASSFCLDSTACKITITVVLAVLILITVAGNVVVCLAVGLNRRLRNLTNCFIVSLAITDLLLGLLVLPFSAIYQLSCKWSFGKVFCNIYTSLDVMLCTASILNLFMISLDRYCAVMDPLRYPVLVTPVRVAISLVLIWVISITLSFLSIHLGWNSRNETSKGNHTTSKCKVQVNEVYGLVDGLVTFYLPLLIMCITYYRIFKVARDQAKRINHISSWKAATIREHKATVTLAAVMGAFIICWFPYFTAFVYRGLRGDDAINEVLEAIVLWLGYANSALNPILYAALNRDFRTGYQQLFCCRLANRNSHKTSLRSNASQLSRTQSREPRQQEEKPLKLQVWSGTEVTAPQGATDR

Histamine H4 receptor = Histamine H4 receptor (Homo sapiens, UniProt Q9H3N8)
D(3) dopamine receptor [3] = target: T1, D(3) dopamine receptor; assay: Agonist activity at […] expressed in HEK293T cells co-expressing ELucC by beta arrestin2 recruitment assay; type: functional, cell-based
Histamine H2 receptor [4] = target: T2, Histamine H2 receptor; assay: Agonist activity at human histamine H2 receptor expressed in sf9 insect cell membranes co-exprssing GsalphaS assessed as intrinsic activity at >=30 uM incubated for 90 mins [35S]GTPgammaS binding based microbeta scintillation counting analysis relative to histamine; type: functional; conditions: Membrane, filed as agonist, dose microM >=30, time 90.0 min
Histamine H2 receptor [5] = target: T2, Histamine H2 receptor; assay: Agonist activity at human histamine H2 receptor expressed in HEK293T cells co-expressing ELucC assessed as intrinsic activity at >= 30 uM by beta arrestin2 recruitment assay relative to histamine; type: functional, cell-based; conditions: filed as agonist, dose microM >=30
D(2) dopamine receptor [6] = target: T3, D(2) dopamine receptor (Homo sapiens, UniProt P14416); type: functional, cell-based, HEK293T
T3 sequence (P14416 whole entry): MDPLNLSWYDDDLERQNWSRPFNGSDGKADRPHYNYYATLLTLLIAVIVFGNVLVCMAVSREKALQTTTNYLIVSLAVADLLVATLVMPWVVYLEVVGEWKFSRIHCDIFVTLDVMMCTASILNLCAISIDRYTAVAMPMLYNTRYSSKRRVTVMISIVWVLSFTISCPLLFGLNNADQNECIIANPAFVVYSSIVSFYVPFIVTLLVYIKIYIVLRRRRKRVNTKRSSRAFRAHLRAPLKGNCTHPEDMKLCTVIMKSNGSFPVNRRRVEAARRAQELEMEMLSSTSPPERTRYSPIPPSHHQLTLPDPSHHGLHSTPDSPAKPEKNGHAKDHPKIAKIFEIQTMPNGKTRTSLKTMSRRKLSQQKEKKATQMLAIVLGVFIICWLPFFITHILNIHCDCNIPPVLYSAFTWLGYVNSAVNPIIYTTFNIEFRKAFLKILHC

Histamine H1 receptor = Histamine H1 receptor (Homo sapiens, UniProt P35367); assay: Displacement of [3H]mepyramine from human histamine H1 receptor expressed in sf9 insect cell membranes co-expressing RGS4 incubated for 60 mins by microbeta scintillation counting method; parameters: species or system Membrane
Sequence of Histamine H1 receptor (P35367 whole entry): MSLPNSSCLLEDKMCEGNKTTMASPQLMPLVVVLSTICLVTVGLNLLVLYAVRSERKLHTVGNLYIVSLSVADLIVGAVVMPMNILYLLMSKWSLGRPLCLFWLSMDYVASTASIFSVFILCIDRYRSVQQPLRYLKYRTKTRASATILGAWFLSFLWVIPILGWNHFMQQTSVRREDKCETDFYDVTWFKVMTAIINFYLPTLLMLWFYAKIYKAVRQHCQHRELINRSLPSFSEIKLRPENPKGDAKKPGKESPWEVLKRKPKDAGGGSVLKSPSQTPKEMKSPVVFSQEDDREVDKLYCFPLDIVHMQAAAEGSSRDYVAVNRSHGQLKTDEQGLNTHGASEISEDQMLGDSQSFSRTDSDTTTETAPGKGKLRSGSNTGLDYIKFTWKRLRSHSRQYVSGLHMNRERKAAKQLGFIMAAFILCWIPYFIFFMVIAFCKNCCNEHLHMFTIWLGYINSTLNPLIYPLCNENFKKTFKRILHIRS

D(2) dopamine receptor [7] = target: T3, D(2) dopamine receptor; assay: Displacement of [3H]N-methylspiperone from human D2L receptor expressed in HEK293T cells co-expressing CRE-Luc incubated for 60 mins by microbeta scintillation counting method; type: cell-based
Histamine H2 receptor [8] = target: T2, Histamine H2 receptor; assay: Agonist activity at human histamine H2 receptor expressed in HEK293T cells co-expressing ELucC by beta arrestin2 recruitment assay; type: functional, cell-based
Histamine H2 receptor [9] = target: T2, Histamine H2 receptor; assay: Displacement of [3H]UR-DE257 from human histamine H2 receptor expressed in sf9 insect cell membranes co-expressing GSalphaS incubated for 60 mins by microbeta scintillation counting method; parameters: species or system Membrane
Histamine H3 receptor = Histamine H3 receptor (Homo sapiens, UniProt Q9Y5N1); assay: Displacement of [3H]UR-P129 from human histamine H3 receptor expressed in sf9 insect cell membranes co-expressing Galphai2/Gbeta1gamma2 incubated for 60 mins by microbeta scintillation counting method; parameters: species or system Membrane
Sequence of Histamine H3 receptor (Q9Y5N1 whole entry): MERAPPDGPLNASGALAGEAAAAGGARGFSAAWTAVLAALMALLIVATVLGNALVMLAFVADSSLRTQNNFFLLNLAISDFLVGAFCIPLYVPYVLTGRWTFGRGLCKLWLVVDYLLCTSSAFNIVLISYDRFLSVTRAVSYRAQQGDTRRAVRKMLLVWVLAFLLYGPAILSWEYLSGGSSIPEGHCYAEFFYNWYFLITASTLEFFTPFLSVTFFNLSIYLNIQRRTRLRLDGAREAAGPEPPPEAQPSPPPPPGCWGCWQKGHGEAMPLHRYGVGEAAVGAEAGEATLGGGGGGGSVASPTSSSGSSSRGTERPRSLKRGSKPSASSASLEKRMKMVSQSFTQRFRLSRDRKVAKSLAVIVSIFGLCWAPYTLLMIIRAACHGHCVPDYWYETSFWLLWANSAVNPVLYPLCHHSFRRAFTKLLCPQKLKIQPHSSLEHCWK

[10] = Dissociation constant, pKa2 of compound in HCL or HCL salt; type: physicochemical; conditions: HCl or HCl salt solution
Histamine H2 receptor [11] = target: Histamine H2 receptor (Cavia porcellus, UniProt P47747); assay: (§1) Agonist activity at guinea pig right atrium histamine H2 receptor assessed as increase in heart rate incubated for 30 mins in presence of cimetidine; type: functional, tissue-based, Right cardiac atrium
Sequence of Histamine H2 receptor (Cavia porcellus, UniProt P47747) (P47747 whole entry): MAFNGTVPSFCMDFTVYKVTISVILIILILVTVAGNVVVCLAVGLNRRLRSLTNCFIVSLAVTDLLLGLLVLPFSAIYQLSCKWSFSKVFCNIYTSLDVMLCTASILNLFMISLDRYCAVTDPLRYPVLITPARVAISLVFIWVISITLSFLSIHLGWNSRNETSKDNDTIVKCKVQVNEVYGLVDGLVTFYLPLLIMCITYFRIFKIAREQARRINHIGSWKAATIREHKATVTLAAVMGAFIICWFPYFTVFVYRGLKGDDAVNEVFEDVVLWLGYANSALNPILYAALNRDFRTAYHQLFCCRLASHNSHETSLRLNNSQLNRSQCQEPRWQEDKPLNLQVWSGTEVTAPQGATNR

[12] = Dissociation constant, pKa1 of compound in HCL or HCL salt; type: physicochemical; conditions: HCl or HCl salt solution
[13] = Dissociation constant, pKa of compound in NaOH; type: physicochemical; conditions: NaOH solution
[14] = Dissociation constant, pKa of compound in aqueous solution in presence of EtOH by spectrometric method; conditions: aqueous solution with EtOH
[15] = Dissociation constant, pKa of compound in aqueous solution in presence of HCL; type: physicochemical; conditions: aqueous solution with HCl
[16] = Dissociation constant, pKa of compound in aqueous solution; type: physicochemical
[17] = target: Histamine H2 receptor (Cavia porcellus) (UniProt P47747); assay: as §1; type: functional, tissue-based; conditions: Right cardiac atrium
Sequence of Histamine H2 receptor (Cavia porcellus) (P47747 whole entry): as above

Histamine H2 receptor [18] = target: T2, Histamine H2 receptor; conditions: Sf9, Membrane, filed as agonist, time 90.0 min
[19] = target: Histamine H2 receptor (Cavia porcellus) (UniProt P47747); assay: Agonist activity at guinea pig right atrium histamine H2 receptor assessed as intrinsic activity incubated for 30 mins in presence of cimetidine relative to histamine; type: functional, tissue-based; conditions: Right cardiac atrium, filed as agonist

T1 sequence (P35462 whole entry): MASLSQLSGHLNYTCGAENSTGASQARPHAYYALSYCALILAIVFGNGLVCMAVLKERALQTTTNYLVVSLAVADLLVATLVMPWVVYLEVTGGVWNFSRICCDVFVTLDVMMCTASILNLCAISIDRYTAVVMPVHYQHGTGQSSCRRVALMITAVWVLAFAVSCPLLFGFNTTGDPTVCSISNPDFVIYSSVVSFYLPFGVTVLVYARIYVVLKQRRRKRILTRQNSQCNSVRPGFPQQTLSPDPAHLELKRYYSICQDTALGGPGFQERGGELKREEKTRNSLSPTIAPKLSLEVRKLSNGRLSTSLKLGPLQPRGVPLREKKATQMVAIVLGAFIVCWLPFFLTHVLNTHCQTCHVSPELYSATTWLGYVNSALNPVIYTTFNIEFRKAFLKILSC

Row | SMILES | Ki (D(3) dopamine receptor [1]) | EC50 (Histamine H2 receptor [2]) | Ki (Histamine H4 receptor) | Intrinsic activity (Histamine H2 receptor [4]) | Ki (Histamine H1 receptor) | EC50 (Histamine H2 receptor [8]) | Ki (Histamine H2 receptor [9]) | Ki (Histamine H3 receptor) | other results
1 | Cc1nc(N)sc1CCCN/C(N)=N/C(=O)N[C@H](C)c1ccccc1 | 0.00617 µM |  | 13.5 µM |  | 8.71 µM | 0.0457 µM | 0.0178 µM | 43.7 µM | pKa [10]: 7.47; EC50 (Histamine H2 receptor [11]): 0.00759 µM; EC50 (D(3) dopamine receptor [3]): 0.0155 µM; pKa [12]: 4.68
2 | Cc1nc(N)sc1C |  |  |  |  |  |  |  |  | pKa [13]: 6.28; pKa [14]: 6.29
3 | Cc1csc(N)n1 |  |  |  |  |  |  |  |  | pKa [13]: 5.77; pKa [15]: 4.64; pKa [16]: 5.95
4 | Cc1nc(N)sc1CCCN/C(N)=N/C(=S)NCC(c1ccccc1)c1ccccc1 |  |  | 21.4 µM |  | 44.7 µM |  | 1.45 µM | 46.8 µM | pEC50 [17]: inactive
5 | CCCCCCNC(=O)/N=C(\N)Nc1cccc(-c2csc(N)n2)c1 | 1.29 µM |  | 9.55 µM |  |  |  | 0.692 µM | 11 µM | Ki (D(2) dopamine receptor [7]): 2.51 µM; pKb (Histamine H2 receptor [18]): 6.14
6 | C[C@@H](NC(=O)/N=C(\N)NCCCc1ccccc1)c1ccccc1 |  |  |  |  |  |  |  |  | pKa [13]: 7.96
7 | CCCCCCNC(=O)/N=C(\N)NCCCc1sc(N)nc1C | 0.0141 µM | 0.0389 µM | 8.13 µM | 0.6 | 7.76 µM | 0.0851 µM | 0.0288 µM | 5.62 µM | EC50 (Histamine H2 receptor [11]): 0.0158 µM; EC50 (D(3) dopamine receptor [3]): 0.0234 µM; EC50 (D(2) dopamine receptor [6]): 1.74 µM; Ki (D(2) dopamine receptor [7]): 0.562 µM; Intrinsic activity [19]: 0.95
8 | CCCNC(=O)/N=C(\N)Nc1cccc(-c2csc(N)n2)c1 |  |  | > 100 µM |  |  |  | 5.25 µM |  | pKb (Histamine H2 receptor [18]): 4.91
9 | CCCNC(=O)/N=C(\N)NCC |  |  |  |  |  |  |  |  | pKa [13]: 8.31
10 | N/C(=N\C(=O)NC1CCCCC1)Nc1cccc(-c2csc(N)n2)c1 |  |  | 13.5 µM |  |  |  | 4.47 µM |  | pKb (Histamine H2 receptor [18]): 5.4
11 | Cc1nc(N)sc1CCCN/C(N)=N/C(=O)NCC(C)CCc1ccccc1 (stereo not given) | 0.0457 µM | 0.0295 µM | 3.24 µM | 0.69 | 1.35 µM | 0.355 µM | 0.0631 µM | 9.12 µM | EC50 (D(3) dopamine receptor [3]): 0.891 µM; Intrinsic activity (Histamine H2 receptor [5]): 0.2; EC50 (D(2) dopamine receptor [6]): 5.37 µM; Ki (D(2) dopamine receptor [7]): 0.355 µM
12 | Cc1nc(N)sc1CCCN/C(N)=N/C(=O)NCC(c1ccccc1)C(C)C (stereo not given) |  | 0.0309 µM | 5.89 µM | 0.52 | 5.89 µM | 0.158 µM | 0.102 µM | 11.7 µM | Intrinsic activity (Histamine H2 receptor [5]): 0.11

More lines, main results first:

Row | Ki (D(3) dopamine receptor [1]) | EC50 (Histamine H2 receptor [2]) | Ki (Histamine H4 receptor) | Intrinsic activity (Histamine H2 receptor [4]) | Ki (Histamine H1 receptor) | EC50 (Histamine H2 receptor [8]) | Ki (Histamine H2 receptor [9]) | Ki (Histamine H3 receptor) | SMILES | other results
13 | 0.0437 µM | 0.0219 µM | 1.91 µM | 0.65 | 2.34 µM | 0.224 µM | 0.0398 µM | 10 µM | Cc1nc(N)sc1CCCN/C(N)=N/C(=O)NCC(C)C1CCCCC1 (stereo not given) | EC50 (D(3) dopamine receptor [3]): 0.263 µM; Intrinsic activity (Histamine H2 receptor [5]): 0.4; EC50 (D(2) dopamine receptor [6]): 3.24 µM; Ki (D(2) dopamine receptor [7]): 0.263 µM
14 |  | 0.0347 µM | 2.63 µM | 0.59 | 4.9 µM | 0.282 µM | 0.148 µM | 7.94 µM | Cc1nc(N)sc1CCCN/C(N)=N/C(=O)NCC(C)c1ccc(C(C)C)cc1 (stereo not given) | Intrinsic activity (Histamine H2 receptor [5]): 0.25
15 |  |  | 64.6 µM |  |  |  | 372 µM |  | N/C(=N\C(=O)Nc1ccccc1)Nc1cccc(-c2csc(N)n2)c1 | pKb (Histamine H2 receptor [18]): 4.76
